From US6737383B1, “Herbicidal oxadiazolidines” (priority 1999, dated 2004)

What was measured:
purple nutsedge = experiment: Test B pre/postemergence purple nutsedge; type: in vivo, Cyperus rotundus
How it was run: (§1)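 Response is a visual 0-to-10 score relative to untreated plants, where 0 means no effect and 10 means complete control, taken twelve to sixteen days after application. Treatments went onto soil at planting and onto foliage of 1- to 4-leaf plants, using a surfactant-containing non-phytotoxic solvent.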

giant foxtail = experiment: Test B pre/postemergence giant foxtail; type: in vivo, Setaria faberii
How it was run: as §1

corn = experiment: Test B pre/postemergence corn; type: in vivo, Zea mays
How it was run: as §1

velvetleaf = experiment: Test B pre/postemergence velvetleaf; type: in vivo, Abutilon theophrasti
How it was run: as §1

surinam grass = experiment: Test B pre/postemergence surinam grass; type: in vivo, Brachiaria decumbens
How it was run: as §1

morningglory = experiment: Test B pre/postemergence morningglory; type: in vivo, Ipomoea hederacea
How it was run: as §1

smallflower flatsedge = experiment: Test B flood test smallflower flatsedge; type: in vivo, Cyperus difformis
How it was run: (§2)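 Plants were grown to the 2-leaf stage before treatment with test chemical, then held in a greenhouse for twelve to sixteen days. Injury was visually rated against untreated controls on a 0–10 scale, where 0 is no effect and 10 is complete control.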

crabgrass = experiment: Test B pre/postemergence crabgrass; type: in vivo, Digitaria sanguinalis
How it was run: as §1

blackgrass = experiment: Test B pre/postemergence blackgrass; type: in vivo, Alopecurus myosuroides
How it was run: as §1

rape = experiment: Test B pre/postemergence rape; type: in vivo, Brassica napus
How it was run: as §1

pigweed = experiment: Test B pre/postemergence pigweed; type: in vivo, Amaranthus retroflexus
How it was run: as §1

cocklebur = experiment: Test B pre/postemergence cocklebur; type: in vivo, Xanthium strumarium
How it was run: as §1

duck salad = experiment: Test B flood test duck salad; type: in vivo, Heteranthera limosa
How it was run: as §2

rice = experiment: Test B flood test rice; type: in vivo, Oryza sativa
How it was run: as §2

sugar beet = experiment: Test B pre/postemergence sugar beet; type: in vivo, Beta vulgaris
How it was run: as §1

wheat = experiment: Test B pre/postemergence wheat; type: in vivo, Triticum aestivum
How it was run: as §1

[1] = Postemergence, Rate 62 g/ha, scale 0 to 10, 0 is no effect, 10 is complete control
[2] = Postemergence, Rate 125 g/ha, scale of 0 to 10 where 0 is no effect and 10 is complete control
[3] = Postemergence, Rate 250 g/ha, scale of 0 to 10, 0 is no effect, 10 is complete control
[4] = Postemergence, Rate 500 g/ha, scale of 0 to 10 where 0 is no effect and 10 is complete control
[5] = Preemergence, Rate 62 g/ha, scale of 0 to 10 where 0 is no effect and 10 is complete control
[6] = Preemergence, Rate 125 g/ha, scale of 0 to 10 where 0 is no effect and 10 is complete control
[7] = Preemergence, Rate 250 g/ha, scale 0 to 10 (0 no effect, 10 complete control)
[8] = Preemergence, Rate 500 g/ha, scale of 0 to 10 where 0 is no effect and 10 is complete control
[9] = Rate 62 g/ha, flood test species, Pre-emergence, visual evaluation after twelve to sixteen days
[10] = Rate 125 g/ha, under heading Pre-emergence, flood test species, visual evaluation after twelve to sixteen days
[11] = Rate 250 g/ha, Pre-emergence (flood test species), scale 0 to 10, 0 is no effect, 10 is complete control
[12] = Rate 500 g/ha, Pre-emergence section of Table B, 0 to 10 scale (0 no effect, 10 complete control)

CC(C)N(C(=O)n1oc(=O)n(CC(=O)C2CCC2)c1=O)c1ccc(F)cc1F [Compound 642]
Plant response rating, Nutsedge (purple nutsedge; [1]): 0 | Nutsedge plant response rating (purple nutsedge; [2]): 0 | Nutsedge plant response rating (purple nutsedge; [3]): 0 | Plant response rating, Nutsedge (purple nutsedge; [4]): 0 | Nutsedge plant response rating (purple nutsedge; [5]): 0 | Nutsedge plant response rating (purple nutsedge; [6]): 0 | Plant response rating, Nutsedge (purple nutsedge; [7]): 0 | Plant response rating, Nutsedge (purple nutsedge; [8]): 0 | Plant response rating, Giant foxtail (giant foxtail; [1]): 0 | Giant foxtail plant response rating (giant foxtail; [2]): 0 | Giant foxtail plant response rating (giant foxtail; [3]): 4 | Plant response rating, Giant foxtail (giant foxtail; [4]): 7 | Giant foxtail plant response rating (giant foxtail; [5]): 8 | Giant foxtail plant response rating (giant foxtail; [6]): 10 | Plant response rating, Giant foxtail (giant foxtail; [7]): 10 | Plant response rating, Giant foxtail (giant foxtail; [8]): 10 | Plant response rating, Corn (corn; [1]): 0 | Corn plant response rating (corn; [2]): 0 | Corn plant response rating (corn; [3]): 0 | Plant response rating, Corn (corn; [4]): 0 | Corn plant response rating (corn; [5]): 0 | Corn plant response rating (corn; [6]): 0 | Plant response rating, Corn (corn; [7]): 0 | Plant response rating, Corn (corn; [8]): 0 | Plant response rating, Velvetleaf (velvetleaf; [1]): 0 | Velvetleaf plant response rating (velvetleaf; [2]): 0 | Velvetleaf plant response rating (velvetleaf; [3]): 3 | Velvetleaf plant response rating (velvetleaf; [5]): 0 | Velvetleaf plant response rating (velvetleaf; [6]): 0 | Plant response rating, Velvetleaf (velvetleaf; [7]): 0 | Plant response rating, Velvetleaf (velvetleaf; [8]): 3 | Plant response rating, B. signalgrass (surinam grass; [1]): 0 | Plant response rating, B. signalgrass (surinam grass; [2]): 0 | B. signalgrass plant response rating (surinam grass; [3]): 0 | Plant response rating, B. signalgrass (surinam grass; [4]): 0 | B. signalgrass plant response rating (surinam grass; [5]): 0 | B. signalgrass plant response rating (surinam grass; [6]): 2 | Plant response rating, B. signalgrass (surinam grass; [7]): 5 | Plant response rating, B. signalgrass (surinam grass; [8]): 8 | Plant response rating, Morningglory (morningglory; [1]): 0 | Morningglory plant response rating (morningglory; [2]): 0 | Morningglory plant response rating (morningglory; [3]): 0 | Plant response rating, Morningglory (morningglory; [4]): 3 | Morningglory plant response rating (morningglory; [5]): 0 | Morningglory plant response rating (morningglory; [6]): 0 | Plant response rating, Morningglory (morningglory; [7]): 0 | Plant response rating, Morningglory (morningglory; [8]): 0 | Plant response rating, S. Flatsedge (0 to 10 scale, 0 is no effect, 10 is complete control) (smallflower flatsedge; [9]): 0 | S. Flatsedge plant response rating (0 to 10 scale, 0 is no effect, 10 is complete control) (smallflower flatsedge; [10]): 0 | S. Flatsedge plant response rating (smallflower flatsedge; [11]): 0 | S. Flatsedge plant response rating (smallflower flatsedge; [12]): 0 | Plant response rating, Crabgrass (crabgrass; [1]): 0 | Crabgrass plant response rating (crabgrass; [2]): 0 | Crabgrass plant response rating (crabgrass; [3]): 0 | Plant response rating, Crabgrass (crabgrass; [4]): 5 | Crabgrass plant response rating (crabgrass; [5]): 6 | Crabgrass plant response rating (crabgrass; [6]): 8 | Plant response rating, Crabgrass (crabgrass; [7]): 10 | Plant response rating, Crabgrass (crabgrass; [8]): 10 | Plant response rating, Blackgrass (blackgrass; [1]): 0 | Blackgrass plant response rating (blackgrass; [2]): 0 | Blackgrass plant response rating (blackgrass; [3]): 6 | Plant response rating, Blackgrass (blackgrass; [4]): 6 | Blackgrass plant response rating (blackgrass; [5]): 0 | Blackgrass plant response rating (blackgrass; [6]): 0 | Plant response rating, Blackgrass (blackgrass; [7]): 4 | Plant response rating, Blackgrass (blackgrass; [8]): 7 | Plant response rating, Rape (rape; [1]): 0 | Rape plant response rating (rape; [2]): 0 | Rape plant response rating (rape; [3]): 0 | Plant response rating, Rape (rape; [4]): 0 | Rape plant response rating (rape; [5]): 0 | Rape plant response rating (rape; [6]): 2 | Plant response rating, Rape (rape; [7]): 4 | Plant response rating, Rape (rape; [8]): 9 | Plant response rating, Redroot pigweed (pigweed; [1]): 0 | Redroot pigweed plant response rating (pigweed; [2]): 0 | Redroot pigweed plant response rating (pigweed; [3]): 0 | Redroot pigweed plant response rating (pigweed; [5]): 0 | Redroot pigweed plant response rating (pigweed; [6]): 0 | Plant response rating, Redroot pigweed (pigweed; [7]): 2 | Plant response rating, Redroot pigweed (pigweed; [8]): 8 | Plant response rating, Cocklebur (cocklebur; [1]): 0 | Cocklebur plant response rating (cocklebur; [2]): 0 | Cocklebur plant response rating (cocklebur; [3]): 0 | Plant response rating, Cocklebur (cocklebur; [4]): 0 | Cocklebur plant response rating (cocklebur; [5]): 0 | Cocklebur plant response rating (cocklebur; [6]): 0 | Plant response rating, Cocklebur (cocklebur; [7]): 0 | Plant response rating, Cocklebur (cocklebur; [8]): 0 | Plant response rating, Ducksalad (0 to 10 scale, 0 is no effect, 10 is complete control) (duck salad; [9]): 0 | Ducksalad plant response rating (0 to 10 scale, 0 is no effect, 10 is complete control) (duck salad; [10]): 0 | Ducksalad plant response rating (duck salad; [11]): 0 | Ducksalad plant response rating (duck salad; [12]): 0 | Plant response rating, Rice (0 to 10 scale, 0 is no effect, 10 is complete control) (rice; [9]): 0 | Rice plant response rating (0 to 10 scale, 0 is no effect, 10 is complete control) (rice; [10]): 0 | Rice plant response rating (rice; [11]): 0 | Rice plant response rating (rice; [12]): 0 | Plant response rating, Sugarbeets (sugar beet; [1]): 0 | Sugarbeets plant response rating (sugar beet; [2]): 0 | Sugarbeets plant response rating (sugar beet; [3]): 0 | Sugarbeets plant response rating (sugar beet; [5]): 0 | Sugarbeets plant response rating (sugar beet; [6]): 0 | Plant response rating, Sugarbeets (sugar beet; [7]): 0 | Plant response rating, Sugarbeets (sugar beet; [8]): 4 | Plant response rating, Wheat (wheat; [1]): 0 | Wheat plant response rating (wheat; [2]): 0 | Wheat plant response rating (wheat; [3]): 0 | Wheat plant response rating (wheat; [5]): 0 | Wheat plant response rating (wheat; [6]): 0 | Plant response rating, Wheat (wheat; [7]): 0 | Plant response rating, Wheat (wheat; [8]): 0
